The target of assay [1] is GDP-bound protein (aa 1-169), containing both G12C and C118A amino acid substitutions (Homo sapiens, UniProt P01116, C118A/G12C). In words: Coupled Nucleotide Exchange Assay (SOS-mediated nucleotide exchange, AlphaScreen). It counts as biochemical. To be noted: 2 hours compound pre-incubation. The procedure: Coupled Nucleotide Exchange Assay: Purified GDP-bound […] protein (aa 1-169), containing both G12C and C118A amino acid substitutions and an N-terminal His-tag, was pre-incubated with a compound dose-response titration for 2 hours in assay buffer (25 mM HEPES pH 7.4, 10 mM MgCl2, and 0.01% Triton X-100). Following compound pre-incubation, purified SOS protein (aa 564-1049) and GTP (Roche 10106399001) were added to the assay wells and incubated for an additional hour. […] The assay plates were then read on a PerkinElmer EnVision Multilabel Reader, using AlphaScreen® technology, and data were analyzed using a 4-parameter logistic model to calculate IC50 values.
Sequence of GDP-bound protein (aa 1-169), containing both G12C and C118A amino acid substitutions (P01116 1-169 isoform P01116-2 G12C/C118A): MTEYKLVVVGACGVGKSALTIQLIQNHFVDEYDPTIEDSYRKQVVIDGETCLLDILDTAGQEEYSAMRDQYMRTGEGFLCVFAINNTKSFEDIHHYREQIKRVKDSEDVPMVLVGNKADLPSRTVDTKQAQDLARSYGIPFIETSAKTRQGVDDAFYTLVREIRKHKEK
A general note: Bead proximity is the source of the signal in Alpha formats.

In assay [2] the test system is Phosphorylation of ERK½ in MIA PaCa-2 cells. The assay is described as follows: Phospho-ERK½ MSD Assay in MIA PaCa-2 cells. The format is cell-based. The settings on record: 4 hours compound treatment, 10 ng/mL EGF for 10 min, read-out: p-ERK IC50 (MIA PaCa-2). The method, then: (§1) Phospho-ERK½ MSD Assay: MIA PaCa-2 (ATCC® CRL-1420™) and A549 (ATCC® CCL-185™) cells were cultured in RPMI 1640 Medium (ThermoFisher Scientific 11875093) containing 10% fetal bovine serum (ThermoFisher Scientific 16000044) and 1× penicillin-streptomycin-glutamine (ThermoFisher Scientific 10378016). Sixteen hours prior to compound treatment, MIA PaCa-2 or A549 cells were seeded in 96-well cell culture plates at a density of 25,000 cells/well and incubated at 37° C., 5% CO2. A compound dose-response titration was diluted in growth media, added to appropriate wells of a cell culture plate, and then incubated at 37° C., 5% CO2 for 4 hours. Following compound treatment, cells were stimulated with 10 ng/mL EGF (Roche 11376454001) for 10 min, washed with ice-cold Dulbecco's phosphate-buffered saline, no Ca^2+ or Mg^2+ (ThermoFisher Scientific 14190144), and then lysed in RIPA buffer (50 mM Tris-HCl pH 7.5, 1% Igepal, 0.5% sodium deoxycholate, 150 mM NaCl, and 0.5% sodium dodecyl sulfate) containing protease inhibitors (Roche 4693132001) and phosphatase inhibitors (Roche 4906837001). Cell lysates were stored frozen at −80° C. overnight. Phosphorylation of ERK½ in compound-treated lysates was assayed using Phospho-ERK½ Whole Cell Lysate kits (Meso Scale Discovery K151DWD) according to the manufacturer's protocol. Assay plates were read on a Meso Scale Discovery Sector Imager 6000, and data were analyzed using a 4-parameter logistic model to calculate IC50 values.

Assay [3] relates to Phosphorylation of ERK½ in A549 cells. In words: Phospho-ERK½ MSD Assay in A549 cells. The format is cell-based. To be noted: 4 hours compound treatment, 10 ng/mL EGF for 10 min, read-out: p-ERK IC50 (A549). The procedure: as §1
[4] abbreviates: Homo sapiens, MIA PaCa-2, MIA PaCa-2 cells.

We go through 19 compounds from patent US11285135B2 (AMGEN INC., priority 2016, dated 2022).

Each structure is given as a SMILES string. Where two headings read alike, the source gives them in different places.

With `C=CC(=O)N1CCN(c2nc(=O)n(-c3ccccc3C(C)C)c3cc(-c4cc(N)ccc4Cl)c(Cl)cc23)[C@@H](C)C1` [Example 9-3, 7-(5-amino-2-chlorophenyl)-6-chloro-4-((2S)-2-methyl-4-(2-propenoyl)-1-piperazinyl)-1-(2-(2-propanyl)phenyl)-2(1H)-quinazolinone], in assay [1], the “Coupled exchange IC50” value amounted to 0.113 µM. Besides, the IC50 in assay [2] (setting [4]) stood at 35 nM; in assay [3] (Homo sapiens, A549, A549 cells), 66.1 µM.
For the compound `C=CC(=O)N1CCN(c2nc(=O)n([C@H]3CCCCC3(C)C)c3nc(-c4c(O)cccc4F)c(Cl)cc23)CC1` (racemic) [Example 9-14, 6-chloro-1-((1R)-2,2-dimethylcyclohexyl)-7-(2-fluoro-6-hydroxyphenyl)-4-(4-(2-propenoyl)-1-piperazinyl)pyrido[2,3-d]pyrimidin-2(1H)-one|6-chloro-1-((1S)-2,2-dimethylcyclohexyl)-7-(2-fluoro-6-hydroxyphenyl)-4-(4-(2-propenoyl)-1-piperazinyl)pyrido[2,3-d]pyrimidin-2(1H)-one], the “Coupled exchange IC50” value in assay [1] stood at 0.129 µM. Further, the IC50 in assay [2] (setting [4]) was 344 nM; in assay [3] (Homo sapiens, A549, A549 cells) it was more than 100 µM.
For `C=CC(=O)N1CCN(c2nc(=O)n(-c3ccccc3C(C)C)c3cc(-c4cccc(Cl)c4Cl)c(Cl)cc23)[C@@H](C)C1` [Example 9-10, 6-chloro-7-(2,3-dichlorophenyl)-4-((2S)-2-methyl-4-(2-propenoyl)-1-piperazinyl)-1-(2-(2-propanyl)phenyl)-2(1H)-quinazolinone], the “Coupled exchange IC50” value in assay [1] came to 0.101 µM. The IC50 was 117 nM in assay [2] (setting [4]) and 66.5 µM in assay [3] (Homo sapiens, A549, A549 cells).
The matching figures for `C=CC(=O)N1CCN(c2snc3c(F)c(-c4cc(O)cc(Cl)c4Cl)c(Cl)cc23)CC1` [Example 3-22, 1-(4-(5-chloro-6-(2,3-dichloro-5-hydroxyphenyl)-7-fluoro-2,1-benzothiazol-3-yl)-1-piperazinyl)-2-propen-1-one]: 0.249 µM, 1120 nM and more than 33.3 µM.
For `C=CC(=O)N1CCN(c2snc3c(F)c(-c4cc(O)cc5cnn(C)c45)c(Cl)cc23)CC1` [Example 19-2, 1-(4-(5-chloro-7-fluoro-6-(5-hydroxy-1-methyl-1H-indazol-7-yl)-2,1-benzothiazol-3-yl)-1-piperazinyl)-2-propen-1-one], in that order: 1.62 µM, 4690 nM and 3.7 µM.
`C=CC(=O)N1CCN(c2snc3c(F)c(-c4c(C)ccc5[nH]ncc45)c(Cl)cc23)CC1` [Example 3-5, 1-(4-(5-chloro-7-fluoro-6-(5-methyl-1H-indazol-4-yl)-2,1-benzothiazol-3-yl)-1-piperazinyl)-2-propen-1-one]: in assay [1], the “Coupled exchange IC50” value was 0.693 µM. The IC50 in assay [2] (setting [4]) turned out to be 5260 nM; in assay [3] (Homo sapiens, A549, A549 cells), 3.7 µM.
As for `C=CC(=O)N1CCN(c2snc3c(F)c(-c4c(C5CC5)ccc5[nH]ncc45)c(Cl)cc23)CC1` [Example 23, 1-(4-(5-chloro-6-(5-cyclopropyl-1H-indazol-4-yl)-7-fluoro-2,1-benzothiazol-3-yl)-1-piperazinyl)-2-propen-1-one], the “Coupled exchange IC50” value in assay [1] stood at 3.29 µM. The IC50 in assay [2] (setting [4]) is 3210 nM; in assay [3] (Homo sapiens, A549, A549 cells), more than 33.3 µM.
As for `C=CC(=O)N1CCN(c2nc(=O)n(-c3ccccc3C(C)C)c3nc(-c4c(O)cccc4F)c(Cl)cc23)[C@@H](C)C1` (single isomer, unassigned) [Example 8-6-2], the “Coupled exchange IC50” value in assay [1] was found to be 0.185 µM. For the same compound, the IC50 in assay [2] (MIA PaCa-2 cells) is 128 nM; in assay [3] (A549 cells, listed as 8-6-7) it was more than 100 µM.
As for `C=CC(=O)N1CCN(c2nc(=O)n(-c3ccncc3C3CC3)c3cc(-c4c(O)cccc4F)c(Cl)cc23)CC1` [Example 9-6, 6-chloro-1-(3-cyclopropyl-4-pyridinyl)-7-(2-fluoro-6-hydroxyphenyl)-4-(4-(2-propenoyl)-1-piperazinyl)-2(1H)-quinazolinone], the “Coupled exchange IC50” value in assay [1] worked out at 0.237 µM. In addition, the IC50 is 3510 nM in assay [2] (setting [4]) and more than 100 µM in assay [3] (Homo sapiens, A549, A549 cells).
Take `C=CC(=O)N1CCN(c2snc3c(F)c(-c4cc(O)ccc4F)c(Cl)cc23)CC1` [Example 1-28, 1-(4-(5-chloro-7-fluoro-6-(2-fluoro-5-hydroxyphenyl)benzo[c]isothiazol-3-yl)piperazin-1-yl)prop-2-en-1-one]: the “Coupled exchange IC50” value in assay [1] is 2.20 µM. For the same compound, the IC50 in assay [3] (Homo sapiens, A549, A549 cells) is more than 100 µM.
As for `C=CC(=O)N1CCN(c2nc(=O)n(-c3ccncc3C3CC3)c3cc(-c4c(O)cccc4F)c(Cl)cc23)[C@@H](C)C1` (single isomer, unassigned) [Example 9-7-2], the figures for the IC50 in assay [2] (MIA PaCa-2 cells) and in assay [3] (A549 cells) were 237 nM and 62 µM, respectively.
As to `C=CC(=O)N1CCN(c2snc3cc(-c4cc(O)cc5ccccc45)c(Cl)cc23)CC1` [Example 1-3], the IC50 is 3840 nM in assay [2] (setting [4]) and more than 100 µM in assay [3] (Homo sapiens, A549, A549 cells).
Take `C=CC(=O)N1CCN(c2nc(=O)n(-c3ccncc3C3CC3)c3cc(-c4c(O)cccc4F)c(Cl)cc23)[C@@H](C)C1` (single isomer, unassigned) [Example 9-7-1]: the IC50 in assay [2] (MIA PaCa-2 cells) turned out to be 23 nM; in assay [3] (A549 cells), 14.9 µM.
As for `C=CC(=O)N1CCN(c2nc(=O)n(-c3ccccc3C(C)C)c3nc(-c4c(O)cccc4F)c(Cl)cc23)CC1` [Example 8-2, 6-chloro-7-(2-fluoro-6-hydroxyphenyl)-1-(2-(2-propanyl)phenyl)-4-(4-(2-propenoyl)-1-piperazinyl)pyrido[2,3-d]pyrimidin-2(1H)-one], the IC50 was 50 nM in assay [2] (setting [4]) and more than 100 µM in assay [3] (Homo sapiens, A549, A549 cells).
For the compound `C=CC(=O)N1CCN(c2snc3c(F)c(-c4cc(NC(C)=O)ccc4C)c(Cl)cc23)CC1` [Example 3-13, N-(3-(5-chloro-7-fluoro-3-(4-(2-propenoyl)-1-piperazinyl)-2,1-benzothiazol-6-yl)-4-methylphenyl)acetamide], the “Coupled exchange IC50” value in assay [1] came out at 6.49 µM.
In the case of `C=CC(=O)N1CCN(c2snc3c(F)c(-c4ncccc4Cl)c(Cl)cc23)CC1` [Example 6-2, 1-(4-(5-chloro-6-(3-chloro-2-pyridinyl)-7-fluoro-2,1-benzothiazol-3-yl)-1-piperazinyl)-2-propen-1-one], the “Coupled exchange IC50” value in assay [1] amounted to 5.31 µM.
Still for that read-out and setting: then `C=C(CO)C(=O)N1CCN(c2snc3c(F)c(-c4cc(O)cc5ccccc45)c(Cl)cc23)CC1` [Example 18-3, 1-(4-(5-chloro-7-fluoro-6-(3-hydroxy-1-naphthalenyl)-2,1-benzothiazol-3-yl)-1-piperazinyl)-2-(hydroxymethyl)-2-propen-1-one], with 24.6 µM; and `C=CC(=O)N[C@@H]1CCCN(c2snc3c(F)c(-c4cc(O)cc5ccccc45)c(Cl)cc23)C1` [Example 1-23, N-((3R)-1-(5-chloro-7-fluoro-6-(3-hydroxy-1-naphthalenyl)-2,1-benzothiazol-3-yl)-3-piperidinyl)-2-propenamide], with more than 250 µM; and `C=C(CO)C(=O)N1CCN(c2snc3c(F)c(-c4cc(OC)cc5ccccc45)c(Cl)cc23)CC1` [Example 18-1, 1-(4-(5-chloro-7-fluoro-6-(3-methoxy-1-naphthalenyl)-2,1-benzothiazol-3-yl)-1-piperazinyl)-2-(hydroxymethyl)-2-propen-1-one], with 23.0 µM.

As usually defined, the IC50 is the midpoint of a concentration-inhibition curve.
